Broadly, the MIC is the smallest concentration in the dilution series that meets the test's criterion for growth inhibition.

Assay [1] relates to MBL producing Escherichia coli and Klebsiella pneumoniae strains. Kind of assay: Potentiation of meropenem. The following applies: for Inhibitor concentration that conferred meropenem sensitivity (lowest tested): IMP producers; for Synergy with meropenem: MBL producing strains. It counts as cell-based. As for the experimental part:
(§1) Further studies were carried out to determine if ML302F/ML302 potentiates β-lactam antibiotic activity in clinically derived strains containing IMP-1, IMP-4, VIM-4 or NDM-1, which are the most commonly observed MBLs in clinical isolates. All strains producing MBLs were confirmed as resistant to meropenem at the Clinical and Laboratory Standards Institute (U.S.A.) defined breakpoint of 8 μg/mL for Enterobacteriace (see Table 2 below). The minimum inhibitory concentration (MIC) of meropenem against wildtype and MBL producing Escherichia coli and Klebsiella pneumoniae strains was determined with and without increasing concentrations of ML302 or ML302F. Clinical and Laboratory Standards Institute. 2012. Methods for dilution antimicrobial susceptibility tests for bacteria that grow aerobically; 9th ed. Approved standard M07-A9. CLSI, Wayne, Pa.; and Clinical and Laboratory Standards Institute. 2012. Performance standards for antimicrobial susceptibility testing; 22nd informational supplement M100-S22. CLSI, Wayne, Pa.

In assay [2] the test system is K. pneumoniae A34 (VIM-4). Briefly: Meropenem MIC with and without inhibitor. The assay is classed as cell-based, Klebsiella pneumoniae. On the procedure: as §1
The subject of assay [3] is K. pneumoniae B19 (IMP-4). Briefly: Meropenem MIC with and without inhibitor. The assay is classed as cell-based, Klebsiella pneumoniae. As for the experimental part: as §1
Assay [4] concerns K. pneumoniae NCTC 5055 (IMP-1). Briefly: Meropenem MIC with and without inhibitor. The assay is classed as cell-based, Klebsiella pneumoniae. The following applies: for Meropenem MIC in the presence of inhibitor: K. pneumoniae NCTC 5055 (IMP-1). As for the experimental part:
as §1

For a further assay, the target named is T1, hGlyoxylase II (Homo sapiens, UniProt Q16775).
T1 construct: purchased R&D Systems 5944-GO
Kind of assay: hHAGH (human Glyoxylase II) assay. On Inhibition verdict: key: N.I.—not inhibited. The assay is classed as biochemical. As for the experimental part:
To investigate the selectivity of ML302/ML302F for bacterial MBLs, activity was tested against TEM-1 (a Class A SBL), PBP-5 (penicillin-binding protein 5 or dacA) and PBP-6 (penicillin-binding protein 6, or dacC) from E. coli, hHAT (human histone acetyltransferase) and hHDAC (human histone deacetylase). TEM-1, PBP-5 and -6 and hHAT are known to be inhibited by rhodanines. Selectively against hACE-2 (Angiotensin converting enzyme 2) and hHAGH (Hydroxyacylglutathione hydrolase, human Glyoxylase II) was also tested.
The inhibition analyses for human histone acetyltransferases (HAT), HDAC hHDAC (human histone deacetylase), hACE-2 (Angiotensin converting enzyme 2) and hHAGH (Hydroxyacylglutathione hydrolase, human Glyoxylase II) were performed using the commercially available HAT Assay Kit (Active Motif, catalogue No. 56100 (2009)), hHDAC (Active Motif, catalogue No. 56200 (2013)), hACE-2 (ACE-2 (R&D Systems) and hHAGH ((R&D Systems).
• Assay Buffer: 50 mM Tris, 250 mM NaCl, pH 7.5 • Recombinant Human Glyoxalase II (rhGlyoxalase II) (Catalog #5944-GO) • Substrate: S-Lactoylglutathione (Sigma, Catalog # L7140), 100 mM stock in deionized water • 5, 5′-dithiobis(2-nitrobenzoic acid) (DTNB) (Sigma, Catalog # D8130), 10 mM stock in DMSO • 96-well Clear Plate (Costar, Catalog #92592) • Plate Reader (Model: SpectraMax Plus by Molecular Devices) or equivalent Assay: 1. Dilute rhGlyoxalase II to 0.4 ng/μL in Assay Buffer. 2. Dilute Substrate to 2 mM in Assay Buffer with 400 IJM DTNB to form Substrate Mixture. 3. Load 50 μL of 0.4 ng/μL rhGlyoxalase II into a plate and start the reaction by loading 50 μL of Substrate Mixture. Include a Substrate Blank containing 50 μL of Assay Buffer and 50 μL of Substrate Mixture. 4. Read at 405 nm (absorbance) in kinetic mode for 5 minutes. 5. Calculate specific activity:
[formula] [formula] [formula] [formula] Note: the output of many spectrophotometers is in mOD. Final Assay Conditions Per Well: rhGlyoxalase II: […] S-Lactoylglutathione: 1 mM DTNB: 200 μM

In a further assay the test system is E. coli MG1655 (IMP-1). Briefly: Meropenem MIC with and without inhibitor. It counts as cell-based, Escherichia coli. The following applies: for Meropenem MIC in the presence of inhibitor: E. coli MG1655 (IMP-1). As for the experimental part:
as §1

The test system of another assay is E. coli IR60 (NDM-1). Briefly: Meropenem MIC with and without inhibitor. It counts as cell-based, Escherichia coli. On the procedure: as §1
The mark [5] stands for this setting: Klebsiella pneumoniae, read-out: Meropenem MIC in the absence of inhibitor.

Regarding `CN1CCN(NC(=O)CN2C(=O)C(=Cc3c(Cl)ccc(Cl)c3Cl)SC2=S)CC1` (mixture of isomers) [ML302, N-(4-Methylpiperazin-1-yl)-2-(4-oxo-2-thioxo-5-(2,3,6-trichlorobenzylidene)thiazolidin-3-yl)acetamide], the “Inhibitor concentration that conferred meropenem sensitivity (lowest tested)” value in assay [1] was found to be 10 µg/mL. Besides, in assay [1], the Synergy with meropenem entry is “Synergy between ML302 and meropenem was observed for all MBL producing strains”. The Inhibitor concentration giving meropenem sensitivity in assay [1] (read-out: Inhibitor concentration at which clinically relevant meropenem sensitivity (MIC<8 μg/mL) achieved) was 50 µg/mL. Also, the “Meropenem MIC in the presence of inhibitor” value (“Meropenem MIC … of inhibitor” for short) is recorded as 32 mg/L in assay [2] (inhibitor 10 mg/L); 8 mg/L in assay [2] (inhibitor 25 mg/L); 4 mg/L in assay [2] (inhibitor 50 mg/L); 4 mg/L in assay [2] (inhibitor 100 mg/L); 0.5 mg/L in assay [3] (inhibitor 10 mg/L); ≤ 0.25 mg/L in assay [3] (inhibitor 25 mg/L). Also, the “Meropenem MIC … of inhibitor” value in assay [3] (inhibitor 50 mg/L) is listed as ≤ 0.25 mg/L; in assay [4] (inhibitor 10 mg/L) it was ≤ 0.25 mg/L; in assay [4] (inhibitor 25 mg/L), ≤ 0.25 mg/L; in assay [4] (inhibitor 50 mg/L) it was ≤ 0.25 mg/L; in the assay on E. coli MG1655 (IMP-1) (inhibitor 10 mg/L), 0.5 mg/L; in the assay on E. coli MG1655 (IMP-1) (inhibitor 25 mg/L), ≤ 0.25 mg/L. For the same compound, the “Meropenem MIC … of inhibitor” value with E. coli MG1655 (IMP-1) (inhibitor 50 mg/L) was ≤ 0.25 mg/L; with E. coli MG1655 (IMP-1) (inhibitor 100 mg/L), ≤ 0.25 mg/L; in the assay with E. coli IR60 (NDM-1) (inhibitor 10 mg/L) it was 8 mg/L; in the assay with E. coli IR60 (NDM-1) (inhibitor 25 mg/L) it was 8 mg/L; in the assay on E. coli IR60 (NDM-1) (inhibitor 50 mg/L) it was 4 mg/L; in the assay with E. coli IR60 (NDM-1) (inhibitor 100 mg/L), 2 mg/L. Also, on hGlyoxylase II, the Inhibition verdict entry is “N.I”. For the same compound, the “RA (residual activity)” value on hGlyoxylase II is 98 ± 3%.
With `O=C(O)C(S)=Cc1c(Cl)ccc(Cl)c1Cl` (racemic) [ML302F, 2-Mercapto-3-(2,3,6-trichlorophenyl)acrylic acid], in assay [1], the “Meropenem MICs in the presence of ML302F relative to the same ML302 concentration, fold higher” value was “up to 8 fold”. The “Inhibitor concentration that conferred meropenem sensitivity (lowest tested)” value in assay [1] worked out at 10 µg/mL. Also, the Synergy with meropenem entry in assay [1] is “displayed synergy with meropenem”. The “Meropenem MIC … of inhibitor” value in assay [2] (inhibitor 10 mg/L) was found to be 64 mg/L; in assay [2] (inhibitor 25 mg/L) it was 32 mg/L; in assay [2] (inhibitor 50 mg/L), 32 mg/L; in assay [2] (inhibitor 100 mg/L), 16 mg/L; in assay [3] (inhibitor 10 mg/L) it was 2 mg/L; in assay [3] (inhibitor 25 mg/L), 1 mg/L. Also, the “Meropenem MIC … of inhibitor” value in assay [3] (inhibitor 50 mg/L) is reported as 0.5 mg/L; in assay [4] (inhibitor 10 mg/L), 4 mg/L; in assay [4] (inhibitor 25 mg/L), 0.5 mg/L; in assay [4] (inhibitor 50 mg/L), 0.5 mg/L; in the assay on E. coli MG1655 (IMP-1) (inhibitor 10 mg/L), 4 mg/L; in the assay on E. coli MG1655 (IMP-1) (inhibitor 25 mg/L), 4 mg/L. Moreover, the “Meropenem MIC … of inhibitor” value with E. coli MG1655 (IMP-1) (inhibitor 50 mg/L) stood at 2 mg/L; in the assay with E. coli MG1655 (IMP-1) (inhibitor 100 mg/L) it was 0.5 mg/L; in the assay with E. coli IR60 (NDM-1) (inhibitor 10 mg/L) it was 16 mg/L; in the assay on E. coli IR60 (NDM-1) (inhibitor 25 mg/L) it was 16 mg/L; in the assay on E. coli IR60 (NDM-1) (inhibitor 50 mg/L), 8 mg/L; in the assay on E. coli IR60 (NDM-1) (inhibitor 100 mg/L), 8 mg/L. Besides, the Inhibition verdict result on hGlyoxylase II is “N.I”. The “RA (residual activity)” value at hGlyoxylase II was 95 ± 6%.
As to `C[C@@H](O)[C@H]1C(=O)N2C(C(=O)O)=C(S[C@@H]3CN[C@H](C(=O)N(C)C)C3)[C@H](C)[C@H]12` [Meropenem, meropenem], the MIC in assay [2] (setting [5]) was 128 µg/mL; in assay [3] (setting [5]), 16 µg/mL; in assay [4] (Klebsiella pneumoniae, NCTC5055, read-out: Meropenem MIC in the absence of inhibitor), 32 µg/mL; in the assay on E. coli MG1655 (IMP-1) (Escherichia coli, MG1655, read-out: Meropenem MIC in the absence of inhibitor), 32 µg/mL; in the assay on E. coli IR60 (NDM-1) (Escherichia coli, read-out: Meropenem MIC in the absence of inhibitor) it was 16 µg/mL.
